Tested on: cancer of the prostate
Assay: Case reports: treatment of patients with cancer of the prostate (PSA level, bone scans, X-rays, rectal examination)
Format: in vivo, human
Procedure: Instead, a course of radiation of the involved ribs and lumbar-sacral vertebrae was carried out to reduce pain, following which the patient was referred for further treatment.
They were treated with flutamide plus leuprolide for eight weeks followed by implantation of a radioactive needle into the tumor mass. […] At this point, drug therapy was terminated and local radiation was applied to the lumbar spine to reduce pain. […] Two acquaintances in their sixties had been routinely monitoring their PSA levels every six to twelve months because of their age. […] Both were started immediately on low-dose naltrexone 3 mg/day q.h.s while they considered the desirability of undergoing standard therapies for prostate cancer. This exploration took a period of three months for one and four months for the other with both eventually electing to undergo treatment with flutamide, a testosterone blocking agent.

O=C1CC[C@@]2(O)[C@H]3Cc4ccc(O)c5c4[C@@]2(CCN3CC2CC2)[C@H]1O5 [naltrexone, Naltrexone]
Symptom-free follow-up with normal bone scans and very low PSA readings (Example 1: continued naltrexone treatment): 18 months | Tumor on bone scans (Example 1: naltrexone 3 mg/day q.h.s., after four months): disappeared | PSA level (Example 1: person, bone metastases, after failed drug therapy and radiation, naltrexone 3 mg/day q.h.s., after four months): less than 1.0 | X-rays of the spine (Example 2: naltrexone 3 mg day q.h.s., over five months): became normal | PSA reading (Example 2: person, lumbar vertebrae lesions, after failed drug therapy and local radiation, naltrexone 3 mg day q.h.s., over five months): zero | Tumor shrinkage (Examples 3 and 4: two men, untreated adenocarcinoma of the prostate, naltrexone 3 mg/day q.h.s. alone for three / four months): substantial shrinkage, by more than one-half

Source: patent publication US6384044B1, “Method of treating cancer of the prostate” (priority 1999, dated 2002)
